Molecular target: human orexin-2 receptor (Homo sapiens (Human), UniProt O43614)
Assay: FLIPR Ca2+ Flux Assay, orexin-2 receptor
Type: cell-based
Conditions: CHO cells expressing the human orexin-2 receptor; agonist 70 pM Ala-6,12 orexin-A; read-out: hOX2R FLIPR IC50
Summary of the method: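 CHO cells expressing rat OX1 or human OX2 receptor, Fluo-4AM loaded 60 min; compound preincubated 5 min before 70 pM Ala-6,12 human orexin-A in HBSS/20 mM HEPES/0.1% BSA/2.5 mM probenecid, pH 7.4. FLIPR peak fluorescence over 5 min versus agonist-only response gives IC50.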

human orexin-2 receptor, sequence (O43614 whole entry): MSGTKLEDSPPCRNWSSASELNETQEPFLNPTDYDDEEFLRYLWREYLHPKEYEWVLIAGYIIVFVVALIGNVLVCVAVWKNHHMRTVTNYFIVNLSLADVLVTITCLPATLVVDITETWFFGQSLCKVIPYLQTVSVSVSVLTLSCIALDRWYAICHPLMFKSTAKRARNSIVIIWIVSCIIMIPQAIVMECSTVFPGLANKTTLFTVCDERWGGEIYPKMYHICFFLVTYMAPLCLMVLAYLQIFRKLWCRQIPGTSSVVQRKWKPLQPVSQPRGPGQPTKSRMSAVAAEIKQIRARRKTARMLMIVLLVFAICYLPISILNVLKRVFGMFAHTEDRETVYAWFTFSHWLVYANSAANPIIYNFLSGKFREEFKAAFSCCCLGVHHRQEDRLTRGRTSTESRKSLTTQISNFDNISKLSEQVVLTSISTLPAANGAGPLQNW

Structure (SMILES)	IC50
CCN(CCNc1nc(C)cc(C)n1)C(=O)c1ccccc1-n1nccn1 [Example A-5, N-(2-((4,6-dimethylpyrimidin-2-yl)amino)ethyl)-N-ethyl-2-(2H-1,2,3-triazol-2-yl)benzamide]	1760 nM
CCN(CCN(C)c1nc(C)cc(C)n1)C(=O)c1ccccc1CC(F)(F)F [Example B-18, N-{2-[(4,6-dimethylpyrimidin-2-yl)(methyl)amino]ethyl}-N-ethyl-2-(2,2,2-trifluoroethyl)benzamide]	36.2 nM
CCN(CCN(C)c1nc(C)cc(C)n1)C(=O)c1ccccc1C1CC1(F)F (stereo not drawn) [Example B-29, 2-(2,2-difluorocyclopropyl)-N-{2-[(4,6-dimethylpyrimidin-2-yl)(methyl)amino]ethyl}-N-ethylbenzamide]	18.9 nM
CCN(CCN(C)c1nc(C)cc(C)n1)C(=O)c1ccccc1C1CC1 [Example B-1, 2-cyclopropyl-N-(2-((4,6-dimethylpyrimidin-2-yl)(methyl)amino)ethyl)-N-ethylbenzamide]	26.4 nM
CCN(CCN(C)c1nc(C)cc(C)n1)C(=O)c1ccccc1N1CCCC1 [Example B-30, N-{2-[(4,6-dimethylpyrimidin-2-yl)(methyl)amino]ethyl}-N-ethyl-2-pyrrolidin-1-ylbenzamide]	18.5 nM
CCN(CCN(C)c1nc(OC)cc(OC)n1)C(=O)c1ccccc1-n1nccn1 [Example E-9, N-{2-[(4,6-dimethoxypyrimidin-2-yl)(methyl)amino]ethyl}-N-ethyl-2-(2H-1,2,3-triazol-2-yl)benzamide]	341 nM
CCN(CCN(C)c1nccc(C(C)(C)O)n1)C(=O)c1ccc(OC)nc1C1CC1 [Example H-28, 2-cyclopropyl-N-ethyl-N-(2-((4-(2-hydroxypropan-2-yl)pyrimidin-2-yl)(methyl)amino)ethyl)-6-methoxynicotinamide]	20 nM
CCN(CCN(C)c1nccc(C(C)(C)O)n1)C(=O)c1ccccc1CC(F)F [Example H-24, 2-(2,2-difluoroethyl)-N-ethyl-N-(2-((4-(2-hydroxypropan-2-yl)pyrimidin-2-yl)(methyl)amino)ethyl) benzamide]	20.6 nM
CCN(CCN(C)c1cc(C#N)ccn1)C(=O)c1ccccc1-n1cnnn1 [Example F-25, N-{2-[(4-cyanopyridin-2-yl)(methyl)amino]ethyl}-N-ethyl-2-(1H-tetrazol-1-yl)benzamide]	4390 nM
CCN(CCN(C)c1cccc(C(C)(C)O)n1)C(=O)c1ncccc1-c1ccccc1 [Example I-22, N-ethyl-N-(2-((6-(2-hydroxypropan-2-yl)pyridin-2-yl)(methyl)amino)ethyl)-3-phenylpicolinamide]	211 nM
CC(C)CN(CCN(C)c1cc(C#N)ccn1)C(=O)c1ccccc1-n1nccn1 [Example G-8, N-(2-((4-cyanopyridin-2-yl)(methyl)amino)ethyl)-N-isobutyl-2-(2H-1,2,3-triazol-2-yl)benzamide]	12.2 nM
CCN(CCN(C)c1nc(C)cc(C)n1)C(=O)c1cccnc1OC(C)C [Example B-5, N-(2-((4,6-dimethylpyrimidin-2-yl)(methyl)amino)ethyl)-N-ethyl-2-isopropoxynicotinamide]	80 nM
CCN(CCN(C)c1cccc(C(C)(C)O)n1)C(=O)c1cccnc1OC(C)C [Example I-21, N-ethyl-N-(2-((6-(2-hydroxypropan-2-yl)pyridin-2-yl)(methyl)amino)ethyl)-2-isopropoxynicotinamide]	387 nM
CCN(CCN(C)c1nccc(C(C)(C)O)n1)C(=O)c1ccccc1C1CC1 [Example H-25, 2-cyclopropyl-N-ethyl-N-(2-((4-(2-hydroxypropan-2-yl)pyrimidin-2-yl)(methyl)amino)ethyl) benzamide]	9.1 nM
CCN(CCN(C)c1cc(C#N)ccn1)C(=O)c1cccnc1Oc1ccccc1 [Example F-7, N-{2-[(4-cyanopyridin-2-yl)(methyl)amino]ethyl}-N-ethyl-2-phenoxypyridine-3-carboxamide]	10000 nM

Reference: patent US10011595B2 (Merck Sharp & Dohme Corp., priority 2014, dated 2018)
